Experiments:
the protein = assay: extent of unfolding of a protein measured by fluorescence versus time after temperature jump to 55° C. (rate of unfolding ku); format: binding; settings: fluorescence versus time at 55° C.; 5% ethanol; 10% glycerol; AND^+; compared with control solution; FIG. 6
Procedure: Multiple identical protein solutions were arranged in two-dimensional arrays of reservoirs which were incubated at different temperatures. These samples were alternatively illuminated with UV light and monochromatic red light. The fluorescence emitted and the light scattered at 90° were measured from the top of the arrangement. The fluorescence emitted and the light scattered intensity data were collected at intervals of time of incubation for all the temperatures simultaneously. In another example, the protein was incubated in 5% ethanol; 10% glycerol, AND^+ or a control solution and the extent of unfolding was measured at 55° C. A plots of fluorescence at the given temperature versus time was automatically built for all the samples, and the rate of unfolding ku was obtained from the fitted exponential grow portion of the curves for the proteins jumped to 55° C.

[1] = test system: refolded Gaf domain of PDE10; assay: thermal aggregation (light scattering) of refolded protein, temperature of aggregation (Tag) with ligands; format: binding; settings: refolded Gaf domain of PDE10 in presence of ligand; light scattering versus temperature; FIG. 10
Procedure: The fluorescence emitted and the light scattered at 90° were measured from the top of the arrangement. The fluorescence emitted and the light scattered intensity data were collected at intervals of time of incubation for all the temperatures simultaneously.

Row | Structure (SMILES) | effect on the stability of the protein (unfolding, ku) (the protein) | change of temperature of aggregation (Tag) [1]
1 | NC(=O)c1ccc[n+]([C@@H]2O[C@H](COP(=O)([O-])OP(=O)(O)OC[C@H]3O[C@@H](n4cnc5c(N)ncnc54)[C@H](O)[C@@H]3O)[C@@H](O)[C@H]2O)c1 [AND^+] | strongest stabilizing effect | –
2 | OCC(O)CO [Glycerol, glycerol] | stabilizing effect | –
3 | Nc1nc2c(ncn2[C@@H]2O[C@@H]3COP(=O)(O)O[C@H]3[C@H]2O)c(=O)[nH]1 [cGMP] | – | increased the Tag
4 | CCO [ethanol] | destabilizing effect or no effect at all | –
